According to publication PMC11420244, “Evaluation of the effect of modafinil on the pharmacokinetics of encorafenib and binimetinib in patients with BRAF V600-mutant advanced solid tumors” (Cancer Chemotherapy and Pharmacology, 2024):
“Also recorded” adds a separate entry of the source. Like-named read-outs stand apart in the source and are kept apart here.

Assays:
[1] = Phase 1 clinical DDI study: steady-state plasma PK (noncompartmental analysis) with and without modafinil; type: in vivo, Human; details: for AUC(0-t) / half-life / Cmax: human
Description: Encorafenib 450 mg QD and binimetinib 45 mg BID were administered starting on Day 1. Patients then received continuous treatment of 400 mg QD modafinil on Day 15 through Day 21. Blood samples for measurement of plasma concentrations of encorafenib (and its metabolite, LHY746) and binimetinib (and its active metabolite, AR00426032), were collected at 0, 1, 2, 3, 4, 6 and 8 h post dose on Day 14 and Day 21.
Human PK plasma samples were analyzed for quantitation of all PK analytes at PPD (Middleton, Wisconsin, US) using validated, sensitive, and specific HPLC/MS/MS methods in compliance with laboratory SOPs.
PK parameters including, but not limited to, Cmax and AUClast were calculated for each participant using noncompartmental analysis (NCA) methods using the WinNonlin software package (Phoenix WinNonlin Professional, version 8.0 Pharsight Corporation, Mountain View, California) for PK analytes including encorafenib and its metabolite LHY746, and binimetinib and its metabolite AR00426032.
All patients who received at least one dose of any study drug were included in the Safety Set population. The Evaluable PK Set included all patients with sufficient concentration data to calculate at least one PK parameter for encorafenib and binimetinib on Days 14 and 21. Patients who discontinued, missed 3 or more consecutive doses of encorafenib prior to completion of the last PK sampling on Day 14, or required a dose reduction of encorafenib prior to completion of the last PK sampling on Day 14 were excluded from the Evaluable PK set. In addition, patients who missed any dose of study drugs on any of the PK days, or who vomited within 4 h after dosing on any of the PK days were excluded from Evaluable PK set.
An analysis of variance (ANOVA) was performed on the natural log (ln)-transformed Cmax and AUClast of encorafenib, LHY746, binimetinib, and AR00426032. The least squares means (LSM) geometric mean ratio (GMR) and associated 90% confidence interval (CI) for each PK parameter were calculated using the exponentiation of the difference between treatment LSM from the analyses on the ln-transformed parameters and expressed as a percentage of Day 21 relative to Day 14.

[2] = system: UGT1A1; details: cited from earlier work
[3] = Day 21 (with modafinil) relative to Day 14 (without)
[4] = Day 21, with modafinil 400 mg QD, steady state, plasma, patients

AUClast GMR (geometric mean ratio) [1, 3]: 0.957
Cmax GMR (geometric mean ratio) [1, 3]: 1
Cmax GMR (geometric mean ratio) ([1]; Day 21 (with modafinil) relative to Day 14 (without), listed as binimetinib): 1.00
Cmax, Median (range) [1, 4]: 686 (424–923) ng/mL
Tmax, Median (range) [1, 4]: 1.00 (0.95–2.10) hr
Effect of steady-state modafinil on exposure/PK (in words) ([1]; Day 21 vs Day 14, modafinil 400 mg QD): similar; also recorded: no change
Time at which mean plasma concentrations typically reach peak levels, postdose ([1]; Days 14 and 21, steady state): 1 h
AUC(0-t) ([1]; plasma, oral, 400 mg, Day 21, with modafinil 400 mg QD, steady state, plasma, patients, read-out: AUClast, GM (CV%)): 2290 ng·h/mL
AUC(0-t) ([1]; plasma, oral, 400 mg, Day 21, with modafinil 400 mg QD, steady state, plasma, patients, read-out: AUClast, Median (range)): 2430 ng·h/mL
half-life ([1]; plasma, oral, 400 mg, Day 21, with modafinil 400 mg QD, steady state, plasma, patients, read-out: T1/2, GM (CV%) (converted)): 4.55 h
half-life ([1]; plasma, oral, 400 mg, Day 21, with modafinil 400 mg QD, steady state, plasma, patients, read-out: T1/2, Median (range) (converted)): 4.47 h
AUC(0-t) ([1]; plasma, oral, Day 14, without modafinil, steady state, plasma, patients, read-out: AUClast, GM (CV%)): 2400 ng·h/mL
AUC(0-t) ([1]; plasma, oral, Day 14, without modafinil, steady state, plasma, patients, read-out: AUClast, Median (range)): 2670 ng·h/mL
Cmax ([1]; plasma, oral, Day 14, without modafinil, steady state, plasma, patients, read-out: Cmax, Median (range)): 609 ng/mL
half-life ([1]; plasma, oral, Day 14, without modafinil, steady state, plasma, patients, read-out: T1/2, GM (CV%) (converted)): 4.62 h
half-life ([1]; plasma, oral, Day 14, without modafinil, steady state, plasma, patients, read-out: T1/2, Median (range) (converted)): 5.15 h
Cmax ([1]; plasma, po, Day 14, without modafinil, steady state, encorafenib 450 mg QD + binimetinib 45 mg BID oral, plasma, patients, read-out: Cmax, GM (CV%)): 660 ng/mL
Cmax ([1]; plasma, po, Day 21, with modafinil 400 mg QD Days 15-21, steady state, encorafenib 450 mg QD + binimetinib 45 mg BID oral, plasma, patients, read-out: Cmax, GM (CV%)): 663 ng/mL
Compound: Cn1cnc2c(F)c(Nc3ccc(Br)cc3F)c(C(=O)NOCCO)cc21 [Binimetinib, binimetinib]
Contribution of UGT1A1-mediated metabolism to metabolism [2]: up to 61%
